Experimental data taken from article PMC11617668, “Developing Allosteric Inhibitors of SARS‐CoV‐2 RNA‐Dependent RNA Polymerase” (Chemmedchem, 2024).
In brackets after ≈: the same amount, converted by molar mass. Like-named read-outs stand apart in the source and are kept apart here.

Columns and labels:
[1] = system: COVID‐19; details: cited from earlier work
[2] = biological target: SARS‐CoV‐2 RdRp complex (nsp12, nsp7, nsp8) (Severe acute respiratory syndrome coronavirus 2, UniProt P0DTD1); assay: Fluorescence-based RdRp polymerase assay (SYBR Green I RNA extension); format: biochemical
[3] = in vitro; details: human
Experimental: (§1) Briefly, two‐fold fold serial dilutions of compounds were added in triplicate in a 384‐well plate with 15,000 Calu‐3 cells in DMEM medium with 2 % FBS, 100 U of penicillin/ml and 100 μg of streptomycin/ml (all Merck). After 1 h incubation SARS‐CoV‐2 was added at multiplicity of infection 0.01. Following three days incubation at 37 °C in 5 % CO2 the cell viability was determined by addition of XTT solution (Sigma‐Aldrich) for 4 h and the absorbance was measured using EnVision plate reader (Perkin Elmer). Drug concentrations required to reduce viral cytopathic effect by 50 % (EC50) were calculated using nonlinear regression from plots of percentage cell viability versus log10 drug concentration using GraphPad Prism v.9.0.0 (GraphPad Software). Cytotoxicity was evaluated by incubating the same two‐fold serial dilutions of each compound with Calu‐3 cells as above but without virus. Following three days of incubation at 37 °C in 5 % CO2, the cell viability was determined by the addition of XTT solution as above. The compound concentrations resulting in a 50 % reduction of absorbance (CC50) were calculated from plots of the percentage of absorbance versus log10 drug concentration as above.

[4] = Solubility in water (stated in words); format: physicochemical
[5] = system: SARS‐CoV‐2; details: Severe acute respiratory syndrome coronavirus 2, Calu-3, 72 h
Experimental: as §1

[6] = system: SARS‐CoV‐2; details: cited from earlier work
[7] = Kinetic solubility test in enzymatic assay medium; format: physicochemical; details: aqueous HEPES buffer with 5 % DMSO, pH 8, aqueous with cosolvent or surfactant or cyclodextrin, kinetic from dmso stock
Experimental: Kinetic solubility tests were performed in the medium used for the enzymatic assay–aqueous solution of HEPES buffer with 5 % DMSO. […] This poor aqueous solubility represents a big hurdle in the development of potential antivirals and the improvement of solubility will be considered in further structural optimization efforts of this class of compounds.

[8] = Cytotoxicity in Calu-3 cells without virus (XTT); details: human, CC50, Calu‐3 cells, no virus, three days
Experimental: as §1

[9] = system: Calu‐3 cells; assay: Cytotoxicity in Calu-3 cells without virus (XTT); details: Calu‐3 cells, no virus, three days
Experimental: as §1

[10] = 50 min, read-out: residual activity (RA) of the SARS‐CoV‐2 RdRp complex
[11] = read-out: residual activity (RA) of SARS‐CoV‐2 RdRp

SMILES: NC(=O)c1nc(F)c[nH]c1=O [favipiravir]
- clinical recovery rate ([1]; open‐label randomized trial in China, COVID‐19 patients): did not significantly improve

SMILES: O=C(Nc1cc(C(F)(F)F)cc(C(F)(F)F)c1)Nc1ccc(Br)cc1-c1nnn[nH]1 [Endovion, endovion, reference compound]
- remaining activity at 10 µM [2, 10]: 40%
- CC50 at 3 days [3]: > 64 µM
- solubility in water [4]: poorly soluble in water
- EC50 [5]: > 64 µM
- activity in cell assays against the virus [6]: active

SMILES: CC(C)C(=O)OC[C@H]1O[C@@H](n2ccc(NO)nc2=O)[C@H](O)[C@@H]1O [Molnupiravir, molnupiravir]
- post‐hospitalization mortality rate ([1]; 30‐day‐long study, patients with moderate COVID‐19, placebo 9.7 %): 6.8%

SMILES: CC(C)OC(=O)c1cc(NC(=O)Nc2cccc([N+](=O)[O-])c2)cc(C(=O)OC(C)C)c1 [Compound 1]
- remaining activity at 10 µM [2, 10]: 57%
- CC50 at 3 days [3]: 23 µM
- solubility in water [4]: poorly soluble in water
- EC50 [5]: > 23 µM

SMILES: FC(F)(F)c1ccc2nc(-c3nc4cc(Cl)c(Cl)cc4[nH]3)[nH]c2c1 [Compound 55, 5,6‐Dichloro‐6′‐(Trifluoromethyl)‐1 H ,1′H‐2,2′‐Bibenzo[d]imidazole]
- remaining activity at 10 µM [2, 10]: 42%
- CC50 at 3 days [3]: 2.1 µM
- solubility kinetic [7]: 2.9 ± 0.6 µM (≈ 1.08 µg/mL)
- EC50 [5]: > 2.1 µM

SMILES: CCC(CC)COC(=O)[C@H](C)N[P@](=O)(OC[C@H]1O[C@@](C#N)(c2ccc3c(N)ncnn23)[C@H](O)[C@@H]1O)Oc1ccccc1 [Remdesivir, remdesivir, reference compound]
- CC50 at 3 days [8]: > 3.2 µM
- CC50 [9]: > 5 µM
- remaining activity at 10 µM [2, 11]: 62%
- remaining activity at 50 µM [2, 11]: 40%
- remaining activity at 100 µM [2, 11]: 25%
- mortality among hospitalized adults ([1]; Adaptive COVID Treatment Trial (ACTT), placebo 15.2 %): 11.4%
- improvement compared with placebo ([1]; Hubei (China) study): no statistically significant improvement
- EC50 [5]: 0.11 µM

SMILES: O=C(Nc1cc(Cl)cc(Cl)c1)Nc1nc2ccc(C(F)(F)F)cc2[nH]1 [Compound 60, 1‐(3,5‐Dichlorophenyl)‐3‐(6‐(Trifluoromethyl)‐1H‐Benzo[d]imidazol‐2‐yl)urea]
- remaining activity at 10 µM [2, 10]: 28%
- CC50 at 3 days [3]: 0.65 µM
- solubility kinetic [7]: < 2.1 µM
- EC50 [5]: > 0.65 µM
